Here are results for 44 compounds from patent publication US20070027118A1 (priority 2005, published 2007).

This test addresses 11β-hsd-1 enzyme (Homo sapiens, UniProt P28845). Put plainly: biochemical. To be noted: for inhibition at 0.1 µM: read-out: % Inh @ 0.1 μM; for inhibition: read-out: % Inh @ 0.1 mM. The procedure:
Percentage of inhibition was determined in a 100 mM Triethanolamine buffer, pH 8.0, 200 mM NaCl, 0.02% n-dodecyl β-D-maltoside and 5 mM β-ME. A typical reaction was carried on a Corning® u-bottom 96-well plate and is described as follows: 11β-hsd-1 enzyme (5 nM, final concentration) was pre-incubated in the presence of the inhibitor and NADPH (500 μM, final concentration) for at least 30 minutes
in the assay buffer. When pre-incubation was completed, the reaction was initiated by adding the regenerating system (2 mM Glucose-6-Phosphate, 1U/mL Glucose-6-Phosphate dehydrogenase, and 6 mM MgCl2, all the concentration reported are final in the assay buffer), and 3H-cortisone (200 nM, final concentration). After 60 minutes, 60 μL of the assay mixture was transferred to a second 96-well plate and mixed with an equal volume of dimethylsulfoxide to stop the reaction. A 15 μL aliquot from the reaction mixture was loaded into a C-18 column (Polaris C18-A, 50×4.6 mm, 5 μ, 180 Angstrom from Varian) connected to an automated High-throughput Liquid Chromatography instrument developed by Cohesive Technologies Inc of Franklin, Mass., with a […] model 3 Radio-HPLC detector from IN/US of Tampa, Fla. The substrate and product peaks were separated by using an isocratic mixture of 43:57 methanol to water (v/v) at a flow rate of 1.0 mL/min.
Percent Inhibition was calculated based on the following equation: (1-(3H-Cortisol peak area in the […] of inhibitor)×100).

Chain of 11β-hsd-1 enzyme (P28845 whole entry, species assumed): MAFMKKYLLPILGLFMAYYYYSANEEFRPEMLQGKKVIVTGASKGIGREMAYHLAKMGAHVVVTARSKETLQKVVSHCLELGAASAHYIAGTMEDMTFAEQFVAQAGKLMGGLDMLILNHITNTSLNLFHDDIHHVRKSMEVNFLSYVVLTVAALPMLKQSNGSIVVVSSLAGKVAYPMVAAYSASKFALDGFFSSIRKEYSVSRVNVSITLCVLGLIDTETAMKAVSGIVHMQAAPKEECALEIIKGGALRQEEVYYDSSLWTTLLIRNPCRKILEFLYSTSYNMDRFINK

For `CCc1cccc(NS(=O)(=O)N2CCC3(CCc4cc(C)ccc4O3)CC2)n1` [Example 64], the inhibition at 0.1 µM is 5.4%.

Consider `Cc1cc(N)cc(NS(=O)(=O)N2CCC(Oc3cccc(F)c3)CC2)c1` [Example 54], for which the inhibition at 0.1 µM stood at 100%. For the compound `CCc1cccc(NS(=O)(=O)N2CCCC(c3nc(C)no3)C2)n1` (centres unmarked) [Example 72, N-(6-ethylpyridin-2-yl)-3-(2-methyl-124-oxadiazol-5-yl)piperidine-1-sulfonamide], the inhibition was 56.7%. Turning to `Cc1cc(N)cc(NS(=O)(=O)N2CCC(Oc3ccccc3)CC2)c1` [Example 55], the inhibition at 0.1 µM is 92%. Regarding `CCc1cccc(NS(=O)(=O)N2CCC(Oc3ccc(C#N)cc3OC)CC2)n1` [Example 110, 4-(4-cyano-2-methoxy-phenoxy)-N-(6-ethylpyridin-2-yl)piperidine-1-sulfonamide], the inhibition is 8%. Regarding `Cc1cc(N)nc(NS(=O)(=O)N2CCn3cc(C(F)(F)F)nc3C2)c1` [Example 51], the inhibition at 0.1 µM came to 38%. For `O=S(=O)(Nc1ccc2ccccc2n1)N1CCOc2ccccc2C1` [Example 174, N-quinolin-2-yl-23-dihydro-14-benzoxazepine-4(5H)-sulfonamide], the inhibition was 57.9%. As for `CCc1cccc(NS(=O)(=O)N2CCC3(CC2)CC(=O)c2cc(Cl)ccc2O3)n1` [Example 65], the inhibition at 0.1 µM worked out at 4.7%.

In the case of `Cc1ccc2oc(N3CCN(S(=O)(=O)Nc4ccc5ccccc5n4)CC3)nc2n1` [Example 179, 4-(5-methyl[13]oxazolo[45-b]pyridin-2-yl)-N-quinolin-2-ylpiperazine-1-sulfonamide], the inhibition amounted to 0%. As to `Cc1cccc(NS(=O)(=O)N2CCN(c3ncccc3C)CC2)n1` [Example 4], the inhibition at 0.1 µM is 26.6%. For the compound `N#Cc1cccnc1N1CCCN(S(=O)(=O)Nc2ccc3ccccc3n2)CC1` [Example 168, 4-(3-cyanopyridin-2-yl)-N-quinolin-2-yl-14-diazepane-1-sulfonamide], the inhibition was 56.7%. As for `CCc1cccc(NS(=O)(=O)N2CCC(c3cccc(C(=O)Nc4ccccn4)c3)CC2)n1` [Example 73, 3-(1-{[(6-ethylpyridin-2-yl)amino]sulfonyl}pipendin-4-yl)-N-pyridin-2-ylbenzamide], the inhibition worked out at 49.6%. With `CCc1cccc(NS(=O)(=O)N2CCC(c3c[nH]c4ccccc34)CC2)n1` [Example 67], the inhibition at 0.1 µM stood at 62.6%.

As for `CCc1cccc(NS(=O)(=O)N2CCC3(CCc4cc(Cl)ccc4O3)CC2)n1` [Example 63], the inhibition at 0.1 µM was 40%.

`Cc1cc(C)nc(NS(=O)(=O)N2CCc3ccc(S(C)(=O)=O)cc3CC2)c1` [Example 41]: the inhibition at 0.1 µM stood at 55%.

`CC1CN(c2ccc(C#N)cn2)CCN1S(=O)(=O)Nc1cccc(CO)n1` (centres unmarked) [Example 59, 4-(5-cyanopyridin-2-yl)-N-[6-(hydroxymethyl)pyridin-2-yl]-2-methylpiperazine-1-sulfonamide]: the inhibition at 0.1 µM worked out at 94.2%. As for `CCc1cccc(NS(=O)(=O)N2CCCN(C(=O)OCc3ccccc3)CC2)n1` [Example 182, benzyl 4-{[(6-ethylpyridin-2-yl)amino]sulfonyl}-14-diazepane-1-carboxylate], the inhibition was 61%. On the same count and under the same terms, in the case of `CC(C)NC(=O)c1ccc(N2CCN(S(=O)(=O)Nc3ccc4ccccc4n3)CC2)nc1` [Example 177, N-isopropyl-6-{4-[(quinolin-2-ylamino)sulfonyl]piperazin-1-yl}nicotinamide] it was 59.4%; in that of `CCc1cccc(NS(=O)(=O)N2CCN(C)CC(COCc3c(F)cccc3F)C2)n1` (centres unmarked) [Example 142, 6-{[(26-difluoro-benzyl)oxy]methyl)-N-(6-ethylpyridin-2-yl)-4-methyl-14-diazepane-1-sulfonamide], 5.9%. Regarding `Cc1cccc(NS(=O)(=O)N2CCN(Cc3ccccc3)CC2)n1` [Example 7], the inhibition at 0.1 µM was found to be 17.7%. With `CCc1cccc(NS(=O)(=O)N2CCN(c3cc(C)nc(C)c3)CC2)n1` [Example 188, 4-(26-dimethylpyridin-4-yl)-N-(6-ethylpyridin-2-yl)piperazine-1-sulfonamide], the inhibition came to 5.5%. Take `CCc1cccc(NS(=O)(=O)N2CCN(Cc3c(F)cccc3F)CC(COC)C2)n1` (centres unmarked) [Example 141, 4-(26-difluorobenzyl)-N-(6-ethylpyridin-2-yl)-6-(methoxymethyl)-14-diazepane-1-sulfonamide]: the inhibition was found to be 13.8%.

With `CCc1cccc(NS(=O)(=O)N2Cc3ccccc3C2)n1` [Example 202, N-(6-ethylpyridin-2-yl)-13-dihydro-2H-isoindole-2-sulfonamide], the inhibition worked out at 2.4%. On the same count and under the same terms, the value for `Cc1cccc(NS(=O)(=O)N2CCN(c3cc(C#N)ccn3)CC2)n1` [Example 135, 4-(4-cyanopyridin-2-yl)-N-(6-methylpyridin-2-yl)piperazine-1-sulfonamide] was 29.9%; that for `CCc1cccc(NS(=O)(=O)N2CCc3cc(OC)c(OC)cc3C2)n1` [Example 192, N-(6-ethylpyridin-2-yl)-67-dimethoxy-34-dihydroisoquinoline-2(1H)-sulfonamide] was 29.4%. Consider `Cc1cccc(NS(=O)(=O)N2CCN(c3ncccc3C(F)(F)F)CC2)n1` [Example 5], for which the inhibition at 0.1 µM worked out at 44.6%. Consider `Cc1ccc(C2(C)CN(S(=O)(=O)Nc3cccc(C)n3)CCO2)cc1` (centres unmarked) [Example 70, 2-methyl-2-(4-methylphenyl)-N-(6-methylpyridin-2-yl)morpholine-4-sulfonamide], for which the inhibition is 85.3%. Consider `CCOCC1CCN(S(=O)(=O)Nc2cccc(CC)n2)CC1` [Example 109, 4-(ethoxymethyl)-N-(6-ethylpyridin-2-yl)pipendine-1-sulfonamide], for which the inhibition stood at 58.7%. On the same count and under the same terms, the value for `COc1cc2c(nn1)CCN(S(=O)(=O)Nc1ccc3ccccc3n1)CC2` [Example 170, 3-methoxy-N-quinolin-2-yl-5689-tetrahydro-7H-pyridazino[34-d]azepine-7-sulfonamide] was 21.2%.

On to `CCc1cccc(NS(=O)(=O)N2CCN(C3CCCCC3)CC2)n1` [Example 62], for which the inhibition at 0.1 µM was 0%.

For `Cc1cc(CC(C)C)nc(N2CCN(S(=O)(=O)Nc3ccc4ccccc4n3)CC2)n1` [Example 175, 4-(4-isobutyl-6-methyl-pyrimidin-2-yl)-N-quinolin-2-ylpiperazine-1-sulfonamide], the inhibition came out at 50%. For the compound `CCc1cccc(NS(=O)(=O)N2C[C@@H]3[C@H](C2)C3(C#N)N2CCOCC2)n1` (some centres unmarked) [Example 115, (1R*5S*6S*)-6-cyano-N-(6-ethylpyridin-2-yl)-6-morpholin-4-yl-3-azabicyclo[3.1.0]hexane-3-sulfonamide], the “% Inh @ 0.1 mM” value (Table 2, inhibitor 0.1 mM as printed) is listed as 0%. As for `Cc1cccc(NS(=O)(=O)N2CCOCC2c2ccc(F)cc2)n1` (centres unmarked) [Example 21], the inhibition at 0.1 µM came to 10.6%. For `CCc1cccc(NS(=O)(=O)N2CCN(c3cnccn3)CC2)n1` [Example 199, N-(6-ethylpyridin-2-yl)-4-pyrazin-2-ylpiperazine-1-sulfonamide], the inhibition is 31.3%. On the same count and under the same terms, in the case of `Cc1cccc(NS(=O)(=O)N2CCCCCC2)n1` [Example 130, N-(6-methylpyridin-2-yl)azepane-1-sulfonamide] it was 56.7%. Consider `Cc1cccc(NS(=O)(=O)N2C[C@H]3C[C@@H]2CN3c2ccc(C#N)cn2)n1` [Example 24], for which the inhibition at 0.1 µM amounted to 0%. As to `Cc1ccnc(N2CCN(S(=O)(=O)Nc3cccc(C)n3)CC2)c1` [Example 6], the inhibition at 0.1 µM was found to be 56.2%. As to `Cc1cc(N)nc(NS(=O)(=O)N2CCn3c(nc4cc(Cl)ccc43)C2)c1` [Example 48], the inhibition at 0.1 µM came to 100%.

`CCc1cccc(NS(=O)(=O)N2CCN(c3nc4cc(OC)ccc4o3)CC2)n1` [Example 185, N-(6-ethylpyridin-2-yl)-4-(5-methoxy-13-benzoxazol-2-yl)piperazine-1-sulfonamide]: the inhibition was found to be 48.9%. For the compound `CCc1cccc(NS(=O)(=O)N2CCC(n3c(C)nnc3CC)CC2)n1` [Example 107, 4-(3-ethyl-5-methyl-4H-124-triazol-4-yl)-N-(6-ethyl-pyridin-2-yl)piperidine-1-sulfonamide], the inhibition worked out at 0%.

In the case of `CCc1cccc(NS(=O)(=O)N2CCC(c3ccc(C(=O)NC)cc3)CC2)n1` [Example 76, 4-(1-{[(6-ethylpyridin-2-yl)amino]sulfonyl}piperidin-4-yl)-N-methylbenzamide], the inhibition came to 34.4%.

Consider `CCc1cccc(NS(=O)(=O)N2CCC(c3cccc(C(N)=O)c3)CC2)n1` [Example 75, 3-(1-{[(6-ethylpyridin-2-yl)amino]sulfonyl}piperidin-4-yl)benzamide], for which the inhibition is 45.6%.

`CCc1cccc(NS(=O)(=O)N2CCCN(c3ncccn3)CC2)n1` [Example 172, N-(6-ethylpyridin-2-yl)-4-pyrimidin-2-yl-14-diazepane-1-sulfonamide]: the inhibition is 60.2%. As for `CCc1cccc(NS(=O)(=O)N2CCC3(CCc4ccccc4O3)CC2)n1` [Example 66], the inhibition at 0.1 µM came out at 42.8%.
